We go through twelve compounds from patent publication US6288036A, “Bradykinin type peptides” (priority 1993, dated 2001).

In general, Ki refers to the dissociation constant of the complex between target and ligand, obtained from inhibition or displacement. Lower therefore signals tighter binding.

*1 amine or outer side, *2 acyl side, *3 side chain or, on linkers, in order; H or OH if unused. Where a SMILES comes first, the peptide text is derived from it. Where no end group is shown, it is not given here. [ ]: non-standard residue; d: D form. The star is where a group is joined. X3 = O=C([C@@H]1C[C@H](Oc2ccc([N+](=O)[O-])cc2)CN1[*:1])[*:2]; X2 = O=C([C@@H]1C[C@H](Oc2ccccc2[N+](=O)[O-])CN1[*:1])[*:2]; Pro(cis-4-OPh) = O=C(O)[C@@H]1C[C@H](Oc2ccccc2)CN1; X1 = O=C([C@@H]1C[C@H](Sc2ccccc2)CN1[*:1])[*:2]; cisHyp = O=C(O)[C@@H]1C[C@H](O)CN1; Hyp = O=C(O)[C@@H]1C[C@@H](O)CN1; Cyclohexylmethyl = C1CCC(C*)CC1; dTic = O=C(O)[C@H]1Cc2ccccc2CN1

Series [1] addresses T1, bradykinin receptors on intestinal (ileal longitudinal) smooth muscle (Cavia porcellus, UniProt O70526).
T1 construct: The longitudinal muscle was separated from the underlying circular muscle; from tissue; host or cells: guinea pig ileal longitudinal smooth muscle strips
T1 sequence (O70526 1-372): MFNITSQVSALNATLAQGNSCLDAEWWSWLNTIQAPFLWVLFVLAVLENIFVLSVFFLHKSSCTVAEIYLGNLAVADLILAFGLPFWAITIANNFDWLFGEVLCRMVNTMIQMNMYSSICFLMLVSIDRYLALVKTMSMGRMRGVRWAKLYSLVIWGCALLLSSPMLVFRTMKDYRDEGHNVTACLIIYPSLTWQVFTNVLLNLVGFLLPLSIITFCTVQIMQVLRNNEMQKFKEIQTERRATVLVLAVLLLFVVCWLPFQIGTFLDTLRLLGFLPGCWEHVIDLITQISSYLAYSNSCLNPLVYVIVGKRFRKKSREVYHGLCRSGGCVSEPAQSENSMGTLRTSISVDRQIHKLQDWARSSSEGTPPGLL
As to the kind of experiment: Bradykinin antagonist activity on guinea pig ileal longitudinal smooth muscle (contraction, Schild analysis). The class given is cell-based. The conditions noted are these: antagonism of bradykinin-induced contraction, guinea pig ileum longitudinal muscle, read-out: pA2 (converted). As to the method:
Determination of Bradykinin Antagonist Activity
Guinea pig intestine was removed and placed in a Petri dish containing Tyrodes solution and cut into 3-4 cm segments. The longitudinal muscle was separated from the underlying circular muscle using a cotton applicator (Paton and Zar, J. Physiol. (1968), 194:13). Muscle strips were connected to isometric force-displacement transducers (Grass or Gould) coupled to a physiograph and placed in tissue baths containing Tyrode's solution at 37° C. Each preparation was suspended under a resting tension of 2 g.
After equilibration of the tissues, appropriate volumes of bradykinin solutions were cumulatively added to the 10 Ml tissue baths to increase the concentration of bradykinin in the bath step-by-step without washing out after each single dose. Higher concentrations were added only after the preceding contraction had reached a steady value. […] Antagonism of bradykinin responses in the presence of antagonist were determined by repeating the cumulative addition procedure for bradykinin after the tissue has been exposed to the antagonist for 5 minutes. Three or four differentconcentrations of antagonist are studied sequentially in the same preparations. Responses were expressed as a percentage of the maximum contraction elicited by bradykinin in the absence of antagonist. pA2 values were calculated by Schild analysis.

In the next series the target is T2, bradykinin receptor (Cavia porcellus, UniProt O70526).
T2 construct: from tissue; host or cells: guinea pig terminal ileum, washed membrane homogenate
T2 sequence (O70526 1-372): T1 sequence (O70526 1-372)
As to the kind of experiment: 3H-Bradykinin binding assay, guinea pig terminal ileum homogenate. To be noted: competition with 3H-bradykinin (~0.3 nM), guinea pig terminal ileum membranes, 90 min ambient temperature. The text has this:
Binding of ^3 H-Bradykinin was preformed using the method of D. C. Manning, […], and […]. Pharmacol. Exp. Ther., (1986),237 504. The tissues used in the binding assay were terminal ileum from male Hartley guinea pigs (150-350 g). After dissection, tissues were placed in 20 vol of ice-cold buffer A (25 Mm TES containing 0.2 g/L of 1,10-phenanthroline adjusted to Ph 6.8 with ammonium hydroxide) and homogenized using a Ploytron Tissumizer at setting 6 for 15 sec. The homogenate was centrifuged at 50,000×g for 10 min, the supernatant discarded, and the pellet resuspended in ice-cold buffer A by homogenization with the Polytron. Each tissue was homogenized and centrifuged three times. The final pellet was resuspended in buffer A containing bovine serum albumin (1 g/L) and Bacitracin (0.14 g/L) to a final volume of 170 Ml/g of the original tissue weight. The binding assay consisted of 1 Ml in 12×75 mm polypropylene tubes: 50 uL ^3 H-bradykinin (20,000 dpm, ~0.3 Nm in the final assay volume), […] displacing drug in buffer A, and 750 Ul tissue homogenate. […] Tubes were incubated for 90 min at ambient temperature. The assays were terminated by filtration over Whatman GF/B glass fiber filters that had been pretreated for 2 hours with polyethyleneimine (2 g/L) using a Brandel Tissue Harvester, followed by washing with 4×1 Ml aliquots of ice-cold 50 Mm Tris, Ph 7.4. Filters were dissolved in Ready-Safe Fluor (Beckman) for at least 90 min before quantitation by liquid scintillation spectrometry. Kd values were determined using saturation binding and analysis by […]. Pharmacol. Methods, (1985), 213)], followed by LIGAND [[…], Anal. Biochem., (1980), 220]. Ki values were determined using competitive analysis followed by EBDA and LIGAND. The following test results were obtained.

For series [2] the following is noted: cited from earlier work.
For series [3] the following is noted: anesthetized rat, intra-aortic vs intravenous administration; cited from earlier work.

Consider `CCO[C@@H]1C[C@@H](C(=O)N[C@@H](CCCNC(=N)N)C(=O)O)N(C(=O)[C@H]2Cc3ccccc3CN2C(=O)[C@H](CO)NC(=O)[C@H](Cc2ccccc2)NC(=O)CNC(=O)[C@@H]2C[C@@H](O)CN2C(=O)[C@@H]2CCCN2C(=O)[C@H](CCCNC(=N)N)NC(=O)[C@H](N)CCCNC(=N)N)C1` [D-Arg-Arg-Pro-4Hyp-Gly-Phe-Ser-D-Tic-(Hydroxyproline trans ethyl ether)-Arg] (H-[dR]RP[Hyp]GFS[dTic][Hyp](Et)R-OH), for which the Kb in series [1] is 51.3 nM. The Ki at bradykinin receptor was determined as 5.44 nM.
Taken in the same sequence, the figures for `N=C(N)NCCC[C@@H](N)C(=O)N[C@@H](CCCNC(=N)N)C(=O)N1CCC[C@H]1C(=O)N1C[C@H](O)C[C@H]1C(=O)NCC(=O)N[C@@H](Cc1ccccc1)C(=O)N[C@@H](CO)C(=O)N1Cc2ccccc2C[C@@H]1C(=O)N1C[C@@H](Oc2ccccc2[N+](=O)[O-])C[C@H]1C(=O)N[C@@H](CCCNC(=N)N)C(=O)O` [D-Arg-Arg-Pro-4Hyp-Gly-Phe-Ser-D-Tic-(hydroxyproline cis 2-nitrophenyl ether)-Arg] (H-[dR]RP[Hyp]GFS[dTic][X2]R-OH) were 141 nM and 3.76 nM.
Taken in the same sequence, the figures for `N=C(N)NCCC[C@@H](N)C(=O)N[C@@H](CCCNC(=N)N)C(=O)N1CCC[C@H]1C(=O)N1C[C@H](O)C[C@H]1C(=O)NCC(=O)N[C@@H](Cc1ccccc1)C(=O)N[C@@H](CO)C(=O)N1Cc2ccccc2C[C@@H]1C(=O)N1C[C@@H](Oc2ccc([N+](=O)[O-])cc2)C[C@H]1C(=O)N[C@@H](CCCNC(=N)N)C(=O)O` [D-Arg-Arg-Pro-4Hyp-Gly-Phe-Ser-D-Tic-(hydroxyproline cis 4-nitrophenyl ether)-Arg] (H-[dR]RP[Hyp]GFS[dTic][X3]R-OH) were 138 nM and 3.98 nM.
As to `N=C(N)NCCC[C@@H](N)C(=O)N[C@@H](CCCNC(=N)N)C(=O)N1CCC[C@H]1C(=O)N1C[C@H](O)C[C@H]1C(=O)NCC(=O)N[C@@H](Cc1ccccc1)C(=O)N[C@@H](CO)C(=O)N1Cc2ccccc2C[C@@H]1C(=O)N1C[C@@H](OCC2CCCCC2)C[C@H]1C(=O)N[C@@H](CCCNC(=N)N)C(=O)O` [D-Arg-Arg-Pro-4Hyp-Gly-Phe-Ser-D-Tic-(hydroxyproline cis cyclohexylmethyl ether)-Arg] (H-[dR]RP[Hyp]GFS[dTic][cisHyp](Cyclohexylmethyl)R-OH), the Ki on bradykinin receptor was 13.2 nM. This counts as double-digit nanomolar.
For `CCO[C@H]1C[C@@H](C(=O)N[C@@H](CCCNC(=N)N)C(=O)O)N(C(=O)[C@H]2Cc3ccccc3CN2C(=O)[C@H](CO)NC(=O)[C@H](Cc2ccccc2)NC(=O)CNC(=O)[C@@H]2C[C@@H](O)CN2C(=O)[C@@H]2CCCN2C(=O)[C@H](CCCNC(=N)N)NC(=O)[C@H](N)CCCNC(=N)N)C1` [D-Arg-Arg-Pro-4Hyp-Gly-Phe-Ser-D-Tic-(hydroxyproline cis ethyl ether)-Arg] (H-[dR]RP[Hyp]GFS[dTic][cisHyp](Et)R-OH), in series [1], the Kb was 110 nM. This compound registered a Ki on bradykinin receptor of 4.15 nM.
In turn, `N=C(N)NCCC[C@@H](N)C(=O)N[C@@H](CCCNC(=N)N)C(=O)N1CCC[C@H]1C(=O)N1C[C@H](O)C[C@H]1C(=O)NCC(=O)N[C@@H](Cc1ccccc1)C(=O)N[C@@H](CO)C(=O)N1Cc2ccccc2C[C@@H]1C(=O)N1C[C@@H](Oc2ccccc2)C[C@H]1C(=O)N[C@@H](CCCNC(=N)N)C(=O)O` [D-Arg-Arg-Pro-4Hyp-Gly-Phe-Ser-D-Tic-(hydroxyproline cis phenyl ether)-Arg] (H-[dR]RP[Hyp]GFS[dTic][Pro(cis-4-OPh)]R-OH) displayed a Ki on bradykinin receptor of 2.51 nM.
Take `N=C(N)NCCC[C@@H](N)C(=O)N[C@@H](CCCNC(=N)N)C(=O)N1CCC[C@H]1C(=O)N1C[C@H](O)C[C@H]1C(=O)NCC(=O)N[C@@H](Cc1ccccc1)C(=O)N[C@@H](CO)C(=O)N1Cc2ccccc2C[C@@H]1C(=O)N1C[C@@H](Sc2ccccc2)C[C@H]1C(=O)N[C@@H](CCCNC(=N)N)C(=O)O` [D-Arg-Arg-Pro-4Hyp-Gly-Phe-Ser-D-Tic-(hydroxyproline cis phenyl thioether)-Arg] (H-[dR]RP[Hyp]GFS[dTic][X1]R-OH): the Kb in series [1] was 11.2 nM. Moreover, on bradykinin receptor, the Ki was found to be 0.06 nM.
In the case of `CCCO[C@H]1C[C@@H](C(=O)N[C@@H](CCCNC(=N)N)C(=O)O)N(C(=O)[C@H]2Cc3ccccc3CN2C(=O)[C@H](CO)NC(=O)[C@H](Cc2cccs2)NC(=O)CNC(=O)[C@@H]2C[C@@H](O)CN2C(=O)[C@@H]2CCCN2C(=O)[C@H](CCCNC(=N)N)NC(=O)[C@H](N)CCCNC(=N)N)C1` [D-Arg-Arg-Pro-4Hyp-Gly-Thi-Ser-D-Tic-(Hydroxyproline cis propyl ether)-Arg], the Kb in series [1] is 224 nM. The inhibition constant (Ki) on bradykinin receptor came out at 1.58 nM.
Compound `N=C(N)NCCC[C@@H](N)C(=O)N[C@@H](CCCNC(=N)N)C(=O)N1CCC[C@H]1C(=O)N1C[C@H](O)C[C@H]1C(=O)NCC(=O)N[C@@H](Cc1cccs1)C(=O)N[C@@H](CO)C(=O)N1Cc2ccccc2C[C@@H]1C(=O)N1C[C@H](OC(=O)Nc2ccccc2)C[C@H]1C(=O)N[C@@H](CCCNC(=N)N)C(=O)O` [D-Arg-Arg-Pro-4Hyp-Gly-Thi-Ser-D-Tic-(Hydroxyproline trans phenyl carbamoyl)-Arg] had a Ki on bradykinin receptor of 11.5 nM.
In the case of `CCCO[C@@H]1C[C@@H](C(=O)N[C@@H](CCCNC(=N)N)C(=O)O)N(C(=O)[C@H]2Cc3ccccc3CN2C(=O)[C@H](CO)NC(=O)[C@H](Cc2cccs2)NC(=O)CNC(=O)[C@@H]2C[C@@H](O)CN2C(=O)[C@@H]2CCCN2C(=O)[C@H](CCCNC(=N)N)NC(=O)[C@H](N)CCCNC(=N)N)C1` [D-Arg-Arg-Pro-4Hyp-Gly-Thi-Ser-D-Tic-(Hydroxyproline trans propyl ether)-Arg], the Kb in series [1] is 138 nM. The compound further registered a Ki at bradykinin receptor of 4.85 nM.
Taken in the same sequence, the figures for `CO[C@H]1C[C@@H](C(=O)N[C@@H](CCCNC(=N)N)C(=O)O)N(C(=O)[C@H]2Cc3ccccc3CN2C(=O)[C@H](CO)NC(=O)[C@H](Cc2cccs2)NC(=O)CNC(=O)[C@@H]2C[C@@H](O)CN2C(=O)[C@@H]2CCCN2C(=O)[C@H](CCCNC(=N)N)NC(=O)[C@H](N)CCCNC(=N)N)C1` [D-Arg-Arg-Pro-4Hyp-Gly-Thi-Ser-D-Tic-(hydroxyproline cis methyl ether)-Arg] were 141 nM and 1.83 nM.
As to “RPPGFSPFR [bradykinin, Arg-Pro-Pro-Gly-Phe-Ser-Pro-Phe-Arg]”, in series [2], the “half life in the systemic circulation” value was “less than 30 seconds”. In addition, in series [3], the “destruction on a single passage through the pulmonary circulation” value is on record as 98-99%.
